Experimental data as given in patent publication US5703059A, “Disaccharide ligands for selectins” (British Biotech Pharmaceuticals Ltd., priority 1993, dated 1997).
One block for each compound: values may come before it.

Biological target: T1, E-selectin (Homo sapiens, UniProt P16581)
T1 construct: expressed in transfected cells
T1 sequence (P16581 22-610): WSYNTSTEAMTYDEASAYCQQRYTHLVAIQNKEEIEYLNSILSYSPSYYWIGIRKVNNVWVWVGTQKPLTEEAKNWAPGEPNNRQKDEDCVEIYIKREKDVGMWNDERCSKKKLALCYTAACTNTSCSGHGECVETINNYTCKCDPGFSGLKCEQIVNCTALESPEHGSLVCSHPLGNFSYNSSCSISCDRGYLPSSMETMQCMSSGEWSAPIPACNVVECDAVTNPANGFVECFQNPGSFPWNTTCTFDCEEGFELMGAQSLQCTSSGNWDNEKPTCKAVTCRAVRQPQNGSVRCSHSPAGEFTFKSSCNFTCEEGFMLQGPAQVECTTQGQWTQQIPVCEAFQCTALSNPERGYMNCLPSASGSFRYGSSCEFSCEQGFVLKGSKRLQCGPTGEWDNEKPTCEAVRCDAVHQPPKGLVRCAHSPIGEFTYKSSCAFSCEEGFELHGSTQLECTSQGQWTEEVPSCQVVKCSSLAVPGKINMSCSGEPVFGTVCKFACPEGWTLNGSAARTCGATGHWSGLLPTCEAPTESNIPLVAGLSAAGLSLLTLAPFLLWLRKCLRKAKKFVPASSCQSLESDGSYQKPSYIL
Experiment: Inhibition of E-selectin mediated adhesion of 3H-thymidine labelled U937 cells to E-selectin expressing CHO cells
Type: cell-based
Settings: U937 binding to E-selectin expressing CHO cells, 4° C., 1 hour
Procedure: The test compounds were assayed to determine their effectiveness at inhibiting E-selectin mediated adhesion between a leucocytic cell line, U937, which expresses ligands for E-selectin, and a Chinese Hamster Ovary cell line which stably expresses E-selectin. The assay has been validated with a commercial known ligand of the E-selectin, 3'-sialyl-3-fucosyl lactose (3S'3FL).
A 96 well plate was seeded with E-selectin expressing CHO cells which were confluent on the day of the assay.
U937 cells were incubated overnight with ^3 H thymidine. (Incubation conditions: 2×10^5 U937 cells per ml, 0.0751 μCi ^3 H thymidine).
Hanks Balanced salts solution, 25 mM HEPES, 0.1% azide.
The compounds were dissolved in 1 ml of assay medium. For E8, 10% methanol was added to achieve a homogenous solution.
The pH of the compounds was adjusted to approximately pH 7.2.
The ^3 H thymidine count value at each concentration of inhibitor is the average of six replicates. Maximum binding was measured by binding U937 cells to E-Selectin CHO cells in the absence of any test compounds.
Background was measured by U937 binding to untransfected CHO cells.
On the day of assay the 96 well plate was washed 3 times in ice cold assay medium. 50 μl of test sample was added to each well and incubated on ice for 1 hour. Meanwhile the U937 cells were washed 3 times in ice cold assay medium. resuspended at a concentration of 3×10^6 cells per ml and then 50 μl was added to each plate. The plates were kept on ice and allowed to incubate at 4° C. for 1 hour. Then they were washed ×3 and the remaining cells solubilised and the radioactivity in the samples counted.
The U937 cells that were used in the 1D2 control were pre-incubated in the presence of 0.1 mg/ml gammaglobulin before addition to the plate.

inhibition at 26800 µM (26.8 mM, 10% methanol added): 18.5%
SMILES: COC1OC(C)C(O)(CC(=O)CCCOC2(C(=O)O)CC(O)C(NC(C)=O)C(C(O)C(O)CO)O2)C(O)C1O [E8, α-O-Methyl-4R-[{N-acetyl-α2"-neuraminidylsodium carboxylate}5'-oxy-2'-oxo-pent-1'-yl]-L-fucopyranoside]

inhibition at 17100 µM (17.1 mM): 65%
SMILES: COC(=O)C1(OCCCC(=O)CC2(O)C(C)OC(OC)C(O)C2O)CC(O)C(NC(C)=O)C(C(O)C(O)CO)O1 [E7, α-O-Methyl-4R-[{5"N-acetyl-α2"-O-neuraminidylmethyl ester}-5'-oxy-2'-oxo-pent-1'-yl]-L-fucopyranoside]

inhibition at 500 µM (0.5 mM): 54%
SMILES: CC(=O)N[C@H]1[C@H]([C@H](O)[C@H](O)CO)O[C@@](O[C@H]2[C@@H](O)[C@@H](CO)O[C@@H](O[C@H]3[C@H](O[C@@H]4O[C@@H](C)[C@@H](O)[C@@H](O)[C@@H]4O)[C@@H](O)C(O)O[C@@H]3CO)[C@@H]2O)(C(=O)O)C[C@@H]1O (stereo partly shown) [3'S3FL, 3'-sialyl-3-fucosyl lactose, reference compound]

inhibition at 30700 µM (30.7 mM): 21%
SMILES: COC(=O)C1(OCCCC=CC(O)CC2(O)C(C)OC(OC)C(O)C2O)CC(O)C(NC(C)=O)C(C(O)C(O)CO)O1 [E21, α-O-Methyl-4R-[{N-acetyl-α2"-neuraminidylmethyl}7'-oxy-2'R and S-hydroxy-hept-3'-en-1'-yl]-L-fucopyranoside]
